Reference: paper PMC7795089, “Antimalarials and Phytotoxins from Botryosphaeria dothidea Identified from a Seed of Diseased Torreya taxifolia” (Molecules, 2020)
Where two headings read alike, the source gives them in different places.

Experiments:
[1] = In vitro cytotoxicity assay (neutral red), Vero cells; format: cell-based; conditions: African green monkey, Vero cells (kidney fibroblasts)
Procedure: (§1) Cells were seeded to the wells of a 96-well plate at a density of 25,000 cells/well and incubated for 24 h. Samples at different concentrations were added and plates were again incubated for 48 h. The number of viable cells was determined by using neutral red dye and IC50 values were obtained from dose response curves. Doxorubicin was used as a positive control.

[2] = test system: Plasmodium falciparum D6 (chloroquine-sensitive) strain; experiment: In vitro antiplasmodial assay, chloroquine-sensitive (D6) clone; format: cell-based; conditions: for IC50: Plasmodium falciparum
[3] = test system: Plasmodium falciparum W2 (chloroquine-resistant) strain; experiment: microbe, parasite or virus in culture; format: cell-based; conditions: for IC50: Plasmodium falciparum
[4] = test system: human leukemia HL-60 cells; design: method as in PMID 30935798; conditions: enantiomers and racemate of compound 2; comparable to positive control irinotecan; cited from earlier work
Bacillus subtilis = test system: Bacillus subtilis; design: method as in PMID 30935798; conditions: enantiomers and racemate of compound 2; cited from earlier work
[5] = In vitro cytotoxicity assay (neutral red), KB; format: cell-based; conditions: human, KB cells (oral epidermal carcinoma), 48 h incubation, read-out: Cytotoxic activity IC50, KB
Procedure: as §1

[6] = In vitro cytotoxicity assay (neutral red), SK-OV-3; format: cell-based; conditions: human, SK-OV-3 cells (ovarian carcinoma), 48 h incubation, read-out: Cytotoxic activity IC50, SK-OV-3
Procedure: as §1

[7] = In vitro cytotoxicity assay (neutral red), BT-549; format: cell-based; conditions: human, BT-549 cells (breast ductal carcinoma), 48 h incubation, read-out: Cytotoxic activity IC50, BT-549
Procedure: as §1

[8] = In vitro cytotoxicity assay (neutral red), SK-MEL; format: cell-based; conditions: human, SK-MEL cells (malignant melanoma), 48 h incubation, read-out: Cytotoxic activity IC50, SK-MEL
Procedure: as §1

[9] = In vitro cytotoxicity assay (neutral red), LLC-PK11; format: cell-based; conditions: pig, 48 h incubation, read-out: Cytotoxic activity IC50, LLC-PK11
Procedure: as §1

Plasmodium = test system: Plasmodium; design: method as in PMID 32043422; conditions: cited from earlier work
[10] = D6, read-out: Chloroquine-Sensitive (D6)-Clone IC50
[11] = W2, read-out: Chloroquine-Resistant (W2)-Clone IC50

Question: With `C[C@@H]1CC[C@H]2[C@@H](C)C(=O)O[C@@H]3O[C@@]4(C)CC[C@@H]1[C@]32OO4` [Artemisinin] as the compound, how does the IC50 at 48 h [1] read?
Answer: > 4.76 µg/mL

Question: For `CCN(CC)CCCC(C)Nc1ccnc2cc(Cl)ccc12` (stereo not shown) [Chloroquine], which IC50 [2, 10] is on record?
Answer: 0.016 µg/mL

Question: What about the IC50 ([2]; D6, read-out: Chloroquine-Sensitive (D6)-Clone IC50 (µM, in parentheses)) of the same compound?
Answer: 0.03 µM

Question: What about the IC50 [3, 11] of the same compound?
Answer: 0.16 µg/mL

Question: What about the IC50 ([3]; W2, read-out: Chloroquine-Resistant (W2)-Clone IC50 (µM, in parentheses)) of the same compound?
Answer: 0.31 µM

Question: What about the IC50 at 48 h [1] of the same compound?
Answer: > 4.76 µg/mL

Question: What does the source list for `CC1=CC(=O)C2(OC2C(=O)CC(C)C)C(=O)N1` (stereo not shown) [Compound 2, flavipucine]?
Answer: cytotoxic activity against human leukemia HL-60 cells [4]: strong cytotoxic activity; antibacterial activity against Bacillus subtilis (Bacillus subtilis): moderate antibacterial activity

Question: Which results are given for `C\C=C(/C=C(C)/C=C/CC/C=C(\C)C(=O)C1=CC(C)(OC)NC1=O)C(=O)OC` (stereo not shown) [Compound 3, dothilactaene A]?
Answer: Chloroquine-Sensitive (D6)-Clone IC50 ([2]; P. falciparum D6, concentration causing 50% growth inhibition, highest concentration tested […]): inactive; IC50 [2, 10]: > 4.76 µg/mL; Chloroquine-Resistant (W2)-Clone IC50 ([3]; P. falciparum W2, concentration causing 50% growth inhibition, highest concentration tested […]): inactive; IC50 [3, 11]: > 4.76 µg/mL; IC50 at 48 h [1]: > 4.76 µg/mL

Question: What does the source list for `COc1cccc2c1C(=O)c1c(O)c3c(c(O)c1C2=O)C[C@@](O)(C(=O)CO)C[C@@H]3O[C@H]1C[C@H](N)[C@H](O)[C@H](C)O1` [Doxorubicin]?
Answer: IC50 at 48 h [5]: 2120 nM; IC50 at 48 h [6]: 1470 nM; IC50 at 48 h [7]: 1830 nM; IC50 at 48 h [8]: 1290 nM; IC50 at 48 h [9]: 1280 nM

Question: Which antiplasmodial activity (Plasmodium) does the source give for `C\C=C(/C=C(C)/C=C/C=C/C=C(\C)C(=O)[C@H]1C(=O)N[C@]2(O)CCO[C@H]12)C(=O)OC` [lucilactaene] here?
Answer: potent antiplasmodial activity
